In patent US20170065564A1, “BIS-CYCLIC GUANIDINE COMPOUND COMPOSITIONS, METHODS OF USE AND TREATMENT THEREOF” (University of South Florida, priority 2014, published 2017):
≈ marks a conversion by molar mass, not a printed value. Read-outs that look alike come from different tables or passages of the source.

Legend:
Enterococcus faecium [1] = assay: Minimal bactericidal concentration (MBC) assay; type: cell-based; conditions: purified compound, read-out: MBC90
Protocol: (§1) Briefly, compound was washed by centrifugation and serial dilution, before plating on Tryptic Soy Agar (TSA). Plates were incubated for 24 hours at 37° C. and cell viability assessed by determining CFU/ml at each concentration, for every compound. Percent recovery was then determined compared to CFU/ml from no drug controls. All concentrations and controls were tested using three biological replicates, alongside two technical replicates for each data point.

Staphylococcus aureus = assay: Minimal bactericidal concentration (MBC) assay; type: cell-based; conditions: purified compound, read-out: MBC90
Protocol: as §1

Acinetobacter baumannii = assay: Minimal bactericidal concentration (MBC) assay; type: cell-based; conditions: purified compound, read-out: MBC90
Protocol: as §1

Klebsiella pneumoniae = assay: Minimal bactericidal concentration (MBC) assay; type: cell-based; conditions: purified compound, read-out: MBC90
Protocol: as §1

Enterobacter cloacae [2] = assay: Minimal bactericidal concentration (MBC) assay; type: cell-based; conditions: purified compound, read-out: MBC90
Protocol: as §1

Pseudomonas aeruginosa [3] = assay: Minimal bactericidal concentration (MBC) assay; type: cell-based; conditions: purified compound, read-out: MBC90
Protocol: as §1

K. pneumoniae = assay: Resistance serial passage assay; type: cell-based, Klebsiella pneumoniae; conditions: 8 passages, concentration doubled each day
Protocol: (§2) ESKAPE pathogens were grown overnight in liquid media at 37° C. These cultures were then diluted 1:100 in fresh media, and seeded into a 96-well plate. Lead bis-cyclic guanidines or control agents were added to respective wells at half MIC concentrations. Plates were then incubated for 24 hours at 37° C., with bacteria removed from these cultures on the following day, to inoculate fresh media (1:100 dilution) containing compounds at a 2-fold higher concentrations. These were then grown overnight, and the procedure repeated for a total of eight days. […] Each experiment was performed in triplicate, yielding identical results.

Pseudomonas aeruginosa [4] = assay: MIC micro broth dilution assay; type: cell-based; conditions: for concentration inhibiting 90% of isolates: panel of P. aeruginosa clinical isolates
Protocol: For this study we used a representative panel of multi-drug resistant clinical ESKAPE pathogen isolates (Supplemental Table S6).^42 43 3a, 44 45 Gram-positive organisms were grown in tryptic soy broth media (TSB), whilst Gram-negative organisms were grown in lysogeny Broth (LB), as described by us previously. ^43 MIC and MBC determination assays.
Broth cultures of ESKAPE strains were grown overnight before being diluted 1 in 1,000 in fresh media. Sterile 96-well plates were loaded with culture and compounds (in DMF) were added at decreasing concentrations to equal a total volume of 200 μl per well. Care was taken to not add more than 2.0% DMF to any well. Plates were then incubated at 37° C., and MICs determined after 24 hours by visual inspection for a lack of turbidity in wells. All assays were performed in triplicate with identical results obtained. For both the scaffold ranking and positional scanning samples, relative broad-spectrum activity was determined via stacked scores: […]

[5] = tested on: Staphylococcus aureus (USA300 strain FPR3757); assay: Murine model of lethal peritonitis; type: in vivo, mice; conditions: 2× MIC, I.M., 1 h post-infection, six mice per group
Protocol: Using MRSA as a representative ESKAPE organism, we infected mice with 1×10^8 bacterial cells in 5% mucin via intraperitoneal injection. At 1 h post-infection, mice were then I.V. injected with either vancomycin (positive control), or I.M. with our front runner compounds.
Six mice per group were injected with 1×10^8 CFU ml^−1 of Staphylococcus aureus (USA300 strain FPR3757) in PBS containing 5% mucin. […] Mice were monitored twice daily for five days to assess mortality. The clinical endpoint of this study was when the mice reached a pre-moribund state. Characteristics of pre-moribund state include: hunched posture, rapid, shallow and/or labored breathing, ruffled fur, lethargy, failure to respond to stimuli, soiled anogenital area, paralysis, paresis, head tilt, circling, vocalizations, non-purposeful movements and/or were unable to eat or drink. Those mice reaching this state prior to the completion of the 5 day infection period were euthanized. The number of mice surviving between control and treatment groups was compared and analyzed for statistical significance using a log rank test.

Enterococcus faecium [6] = assay: MIC micro broth dilution assay; type: cell-based; set-up: key to stacked score activity, 100/MIC, E: stacked score = 100/MIC; conditions: for stacked score activity, 100/MIC, E: E. faecium
How it was run: (§3)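 Strains were multidrug-resistant clinical isolates grown in LB (Gram-negative) or TSB (Gram-positive), diluted 1:1,000 before compound addition.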

Enterobacter cloacae [7] = assay: MIC micro broth dilution assay; type: cell-based; set-up: key to stacked score activity, 100/MIC, E: stacked score = 100/MIC; conditions: for stacked score activity, 100/MIC, E: E. cloacae
How it was run: as §3

E. cloacae = type: cell-based, Enterobacter cloacae; conditions: 8 passages, concentration doubled each day
Protocol: ESKAPE pathogens were grown overnight in liquid media at 37° C. These cultures were then diluted 1:100 in fresh media, and seeded into a 96-well plate. Lead bis-cyclic guanidines or control agents were added to respective wells at half MIC concentrations. […] These were then grown overnight, and the procedure repeated for a total of eight days.

S. aureus = assay: Resistance serial passage assay; type: cell-based, Staphylococcus aureus; conditions: 8 passages, concentration doubled each day
Protocol: as §2

[8] = panel of E. cloacae clinical isolates

CCCCCCCN1C(=N)N(CCCC[C@H]2CNC(=N)N2CCC23CC4CC(CC(C4)C2)C3)C[C@@H]1CCCC [Compound 19]
MBC (Enterococcus faecium [1]): 3.59 µM (≈ 1.94 µg/mL)
MBC (Staphylococcus aureus): 2.88 µM (≈ 1.56 µg/mL)
MBC (Acinetobacter baumannii): 4.66 µM (≈ 2.52 µg/mL)
MBC (Klebsiella pneumoniae): 2.61 µM (≈ 1.41 µg/mL)
MBC (Enterobacter cloacae [2]): 2.70 µM (≈ 1.46 µg/mL)
MBC (Pseudomonas aeruginosa [3]): 2.77 µM (≈ 1.5 µg/mL)
increase in MIC after serial passage (K. pneumoniae): 8 fold
MIC (Pseudomonas aeruginosa [4]; P. aeruginosa isolate 1414): 5.0 µM (≈ 2.7 µg/mL)
MIC (Pseudomonas aeruginosa [4]; P. aeruginosa isolate 1415): 5.0 µM (≈ 2.7 µg/mL)
MIC (Pseudomonas aeruginosa [4]; P. aeruginosa isolate 1416): 3.0 µM (≈ 1.62 µg/mL)
MIC (Pseudomonas aeruginosa [4]; P. aeruginosa isolate 1417): 3.0 µM (≈ 1.62 µg/mL)
MIC (Pseudomonas aeruginosa [4]; P. aeruginosa isolate 1418): 7.0 µM (≈ 3.79 µg/mL)
MIC (Pseudomonas aeruginosa [4]; P. aeruginosa isolate 1419): 3.0 µM (≈ 1.62 µg/mL)
MIC (Pseudomonas aeruginosa [4]; P. aeruginosa isolate 1420): 5.0 µM (≈ 2.7 µg/mL)
MIC (Pseudomonas aeruginosa [4]; P. aeruginosa isolate 1421): 5.0 µM (≈ 2.7 µg/mL)
MIC (Pseudomonas aeruginosa [4]; P. aeruginosa isolate 1422): 5.0 µM (≈ 2.7 µg/mL)
MIC (Pseudomonas aeruginosa [4]; P. aeruginosa isolate 1423): 2.0 µM (≈ 1.08 µg/mL)
concentration inhibiting 90% of isolates (Pseudomonas aeruginosa [4]): 10 µM
MIC (Pseudomonas aeruginosa [4]; purified compound, Table 1): 1.66 µM (≈ 0.898 µg/mL)
survival of infected mice over 5 day infection period [5]: only a single mouse succumbing to infection after the first day
stacked score activity, 100/MIC, E (Enterococcus faecium [6]): 33
MIC (Enterococcus faecium [6]; E. faecium isolate 1406): 2.0 µM (≈ 1.08 µg/mL)
MIC (Enterococcus faecium [6]; E. faecium isolate 1407): 2.0 µM (≈ 1.08 µg/mL)
MIC (Enterococcus faecium [6]; E. faecium isolate 1432): 2.0 µM (≈ 1.08 µg/mL)
MIC (Enterococcus faecium [6]; E. faecium isolate 1438): 2.0 µM (≈ 1.08 µg/mL)
MIC (Enterococcus faecium [6]; E. faecium isolate 1439): 2.0 µM (≈ 1.08 µg/mL)
MIC (Enterococcus faecium [6]; E. faecium isolate 1443): 2.0 µM (≈ 1.08 µg/mL)
MIC (Enterococcus faecium [6]; E. faecium isolate 1444): 2.0 µM (≈ 1.08 µg/mL)
MIC (Enterococcus faecium [6]; E. faecium isolate 1449): 2.0 µM (≈ 1.08 µg/mL)
MIC (Enterococcus faecium [6]; E. faecium isolate 1450): 2.0 µM (≈ 1.08 µg/mL)
MIC (Enterococcus faecium [6]; E. faecium isolate 1451): 2.0 µM (≈ 1.08 µg/mL)
MIC (Enterococcus faecium [6]; purified compound, Table 1): 1.66 µM (≈ 0.898 µg/mL)
stacked score activity, 100/MIC, E (Enterobacter cloacae [7]): 20
MIC (Enterobacter cloacae [7]; E. cloacae isolate 1404): 2.0 µM (≈ 1.08 µg/mL)
MIC (Enterobacter cloacae [7]; E. cloacae isolate 1405): 2.0 µM (≈ 1.08 µg/mL)
MIC (Enterobacter cloacae [7]; E. cloacae isolate 1430): 3.0 µM (≈ 1.62 µg/mL)
MIC (Enterobacter cloacae [7]; E. cloacae isolate 1431): 2.0 µM (≈ 1.08 µg/mL)
MIC (Enterobacter cloacae [7]; E. cloacae isolate 1445): 3.0 µM (≈ 1.62 µg/mL)
MIC (Enterobacter cloacae [7]; E. cloacae isolate 1446): 5.0 µM (≈ 2.7 µg/mL)
MIC (Enterobacter cloacae [7]; E. cloacae isolate 1447): 2.0 µM (≈ 1.08 µg/mL)
MIC (Enterobacter cloacae [7]; E. cloacae isolate 1448): 2.0 µM (≈ 1.08 µg/mL)
MIC (Enterobacter cloacae [7]; E. cloacae isolate 1454): 2.0 µM (≈ 1.08 µg/mL)
MIC (Enterobacter cloacae [7]; E. cloacae isolate 1455): 2.0 µM (≈ 1.08 µg/mL)
concentration inhibiting 70% of strains (Enterobacter cloacae [7]; [8]): 2 µM
concentration inhibiting 90% of isolates (Enterobacter cloacae [7]; [8]): 5 µM
MIC (Enterobacter cloacae [7]; purified compound, Table 1): 1.66 µM (≈ 0.898 µg/mL)
increase in MIC after serial passage (E. cloacae): 8 fold
increase in MIC after serial passage (S. aureus): 16 fold

CCCCCCCN1C(=N)N(CCCC[C@H]2CNC(=N)N2CCc2cccc(C(F)(F)F)c2)C[C@@H]1CCCC [Compound 1]
MBC (Enterococcus faecium [1]; Enterococcus faecium): 1.87 µM (≈ 1.03 µg/mL)
MBC (Staphylococcus aureus; Staphylococcus aureus): 3.09 µM (≈ 1.7 µg/mL)
MBC (Acinetobacter baumannii; Acinetobacter baumannii): 3.05 µM (≈ 1.68 µg/mL)
MBC (Klebsiella pneumoniae; Klebsiella pneumoniae): 2.36 µM (≈ 1.3 µg/mL)
MBC (Enterobacter cloacae [2]; Enterobacter cloacae): 3.14 µM (≈ 1.73 µg/mL)
MBC (Pseudomonas aeruginosa [3]; Pseudomonas aeruginosa): 4.01 µM (≈ 2.21 µg/mL)
MIC (Pseudomonas aeruginosa [4]; Pseudomonas aeruginosa, P. aeruginosa isolate 1414): 5 µM (≈ 2.75 µg/mL)
MIC (Pseudomonas aeruginosa [4]; Pseudomonas aeruginosa, P. aeruginosa isolate 1415): 5 µM (≈ 2.75 µg/mL)
MIC (Pseudomonas aeruginosa [4]; Pseudomonas aeruginosa, P. aeruginosa isolate 1416): 5 µM (≈ 2.75 µg/mL)
MIC (Pseudomonas aeruginosa [4]; Pseudomonas aeruginosa, P. aeruginosa isolate 1417): 5 µM (≈ 2.75 µg/mL)
MIC (Pseudomonas aeruginosa [4]; Pseudomonas aeruginosa, P. aeruginosa isolate 1418): 7 µM (≈ 3.86 µg/mL)
MIC (Pseudomonas aeruginosa [4]; Pseudomonas aeruginosa, P. aeruginosa isolate 1419): 5 µM (≈ 2.75 µg/mL)
MIC (Pseudomonas aeruginosa [4]; Pseudomonas aeruginosa, P. aeruginosa isolate 1420): 5 µM (≈ 2.75 µg/mL)
MIC (Pseudomonas aeruginosa [4]; Pseudomonas aeruginosa, P. aeruginosa isolate 1421): 5 µM (≈ 2.75 µg/mL)
MIC (Pseudomonas aeruginosa [4]; Pseudomonas aeruginosa, P. aeruginosa isolate 1422): 5 µM (≈ 2.75 µg/mL)
MIC (Pseudomonas aeruginosa [4]; Pseudomonas aeruginosa, P. aeruginosa isolate 1423): 2 µM (≈ 1.1 µg/mL)
MIC (Pseudomonas aeruginosa [4]; Pseudomonas aeruginosa, purified compound, Table 1): 1.63 µM (≈ 0.898 µg/mL)
concentration inhibiting 90% of isolates (Pseudomonas aeruginosa [4]): 10 µM
survival of infected mice over 5 day infection period [5]: all mice survived
stacked score activity, 100/MIC, E (Enterococcus faecium [6]): 20
MIC (Enterococcus faecium [6]; Enterococcus faecium, E. faecium isolate 1406): 2 µM (≈ 1.1 µg/mL)
MIC (Enterococcus faecium [6]; Enterococcus faecium, E. faecium isolate 1407): 2 µM (≈ 1.1 µg/mL)
MIC (Enterococcus faecium [6]; Enterococcus faecium, E. faecium isolate 1432): 2 µM (≈ 1.1 µg/mL)
MIC (Enterococcus faecium [6]; Enterococcus faecium, E. faecium isolate 1438): 2 µM (≈ 1.1 µg/mL)
MIC (Enterococcus faecium [6]; Enterococcus faecium, E. faecium isolate 1439): 2 µM (≈ 1.1 µg/mL)
MIC (Enterococcus faecium [6]; Enterococcus faecium, E. faecium isolate 1443): 2 µM (≈ 1.1 µg/mL)
MIC (Enterococcus faecium [6]; Enterococcus faecium, E. faecium isolate 1444): 2 µM (≈ 1.1 µg/mL)
MIC (Enterococcus faecium [6]; Enterococcus faecium, E. faecium isolate 1449): 2 µM (≈ 1.1 µg/mL)
MIC (Enterococcus faecium [6]; Enterococcus faecium, E. faecium isolate 1450): 2 µM (≈ 1.1 µg/mL)
MIC (Enterococcus faecium [6]; Enterococcus faecium, E. faecium isolate 1451): 2 µM (≈ 1.1 µg/mL)
MIC (Enterococcus faecium [6]; Enterococcus faecium, purified compound, Table 1): 1.63 µM (≈ 0.898 µg/mL)
stacked score activity, 100/MIC, E (Enterobacter cloacae [7]): 20
MIC (Enterobacter cloacae [7]; Enterobacter cloacae, E. cloacae isolate 1404): 2 µM (≈ 1.1 µg/mL)
MIC (Enterobacter cloacae [7]; Enterobacter cloacae, E. cloacae isolate 1405): 5 µM (≈ 2.75 µg/mL)
MIC (Enterobacter cloacae [7]; Enterobacter cloacae, E. cloacae isolate 1430): 3 µM (≈ 1.65 µg/mL)
MIC (Enterobacter cloacae [7]; Enterobacter cloacae, E. cloacae isolate 1431): 5 µM (≈ 2.75 µg/mL)
MIC (Enterobacter cloacae [7]; Enterobacter cloacae, E. cloacae isolate 1445): 3 µM (≈ 1.65 µg/mL)
MIC (Enterobacter cloacae [7]; Enterobacter cloacae, E. cloacae isolate 1446): 7 µM (≈ 3.86 µg/mL)
MIC (Enterobacter cloacae [7]; Enterobacter cloacae, E. cloacae isolate 1447): 5 µM (≈ 2.75 µg/mL)
MIC (Enterobacter cloacae [7]; Enterobacter cloacae, E. cloacae isolate 1448): 3 µM (≈ 1.65 µg/mL)
MIC (Enterobacter cloacae [7]; Enterobacter cloacae, E. cloacae isolate 1454): 3 µM (≈ 1.65 µg/mL)
MIC (Enterobacter cloacae [7]; Enterobacter cloacae, E. cloacae isolate 1455): 2 µM (≈ 1.1 µg/mL)
MIC (Enterobacter cloacae [7]; Enterobacter cloacae, purified compound, Table 1): 1.63 µM (≈ 0.898 µg/mL)
concentration inhibiting 90% of isolates (Enterobacter cloacae [7]; [8]): 10 µM
increase in MIC after serial passage (S. aureus): two-fold
